19 compounds from patent US4549023A, “3-Aminoindazole derivatives” (priority 1980, dated 1985) can be followed below.

Series [1] in a line: Acute toxicity (LD50), intravenous injection. The settings on record: mouse, in vivo, male ddY-strain mice, read-out: LD50, Table 19. As for the experimental part:
Acute toxicity was measured by an ordinary method described in Finney DJ Probit Analysis Cambridge University Press 48, (1952). Ddy mice weighing about 18 g on average, each group consisting of 10 animals, were […] injected with the physiological salt solution containing the test compound. The amount of the test compound administered was varied in 5-8 groups. Three days after the administration, dead animals were counted in each group. The amount of the test compound killing half the number of the animals (LD50) was calculated from the results.
The acute toxicity of the 3-aminoindazole derivatives and their hydrochloric acid salts obtained by Examples 1-49 of this invention was measured by giving male ddY-strain mice an intravenous injection.

Series [2] relates to carrageenin-inflamed hind paw of the rat (pressure pain). Put plainly: Randall-Selitto Test (analgesic activity). The settings on record: for Analgesic Coefficient, Table 18: 100 mg/kg, hydrochloric acid salts; for Analgesic Coefficient, Table 18 / Analgesic coefficient: water 0.8; for Analgesic coefficient: Randall-Selitto, oral, 50 mg/kg per method; for Analgesic activity by the Randall-Selitto test: rat, in vivo. It counts as in vivo, Female wister rats. The protocol: The Randall-Selitto analgesic activity test was carried out according to the general method described in J. O. Randall & J. J. Selitto, Arch. Int. Pharmacodyn, 111, 409 (1957). Female wister rats weighing 120-150 g were orally administered 50 mg/kg of the test compound as an aqueous solution. Thirty minutes later, the pad of a hind paw of the rat was injected with 0.1 ml of 1% aqueous carrageenin solution. Pressure was applied to the paw where edema was formed by Balance-type Pressure Device (Ugo Basile Company; Italy) 1, 2, 3 and 4 hours after the injection. The weight when the test animals began to struggle with pain was measured. The analgesic activity is represented by an analgesic coefficient which is obtained by dividing the average weight measured 1.5, 2.5, 3.5 and 4.5 hours after the administration by the applied weight prior to the administration.
The analgesic activity of the 3-aminoindazole derivative hydrochloric acid salts obtained by Examples 2, 6, 10, 18, 22 and 28 of this invention was measured by the standard method of Randall-Selitto test. In these tests, the amount of the administration of the salts was 100 mg/kg.

Series [3] concerns carrageenin edema in rat's paw. Nature of the series: Carrageenin Edema Test in Rat's Paw (anti-inflammatory activity). It counts as in vivo, Female Wistar rats. The following applies: for inhibition in vivo at 100 mg/kg: Rattus norvegicus, hydrochloric acid salts; for Inhibition values compared with comparative compounds: Table 1, 100 mg/kg. As for the experimental part: A standard method of Carrageenin Edema Test in Rat's Paw described in C. A. Winter et al., Proc. Soc. Exp. Biol. Med., 111, 544 (1962) was employed.
[…] One hour later, the pad of a hind paw of the rat was injected with 0.1 ml of 1% aqueous carrageenin solution. The volume of the paw was measured both before the injection of carrageenin and three hours after the injection.
The edema inhibition percentage of the test compound was calculated from the ratio of the increase in the volume of the affected paw of the test animals to the increase in the volume of the affected paw of the controls.
The anti-inflammatory activity of the 3-aminoindazole derivative hydrochloric acid salts of this invention was measured.
The anti-inflammatory activity of the 3-aminoindazole derivative hydrochloric acid salts obtained by Examples 1-49 of this invention was measured by the standard method of carrageenin edema test. In these tests, the amount of the administration of the salts was 100 mg/kg. The results are shown in Table 17 (Inhibition (%) was measured three hours after the injection).

The test system of series [4] is acetic acid-induced writhing in mice. Nature of the series: Acetic Acid-Writhing Test (analgesic activity). It counts as in vivo, Male ddy-strain mice. The settings on record: 100 mg/kg, oral, hydrochloric acid salts. As for the experimental part:
Acetic acid-writhing test was carried out according to Koster et al., Fed. Proc., 18, 412 (1959). […] Thirty minutes later, the mice were intraperitoneally injected with 0.1 ml/10 g of 0.7% acetic acid physiological salt solution as a stimulant. Ten minutes after the stimulant injection, writhing frequency as pain response was observed and recorded over 10 minutes.
The inhibition percentage of the test compound was represented as the ratio of the inhibition of the writhing frequency.
Analgesic activity of 3-aminoindazole derivative hydrochloric acid salts was measured by acetic acid-writhing test.
On the technique in general: Writhing tests count abdominal constrictions after an irritant is injected.

Series [5] relates to gastric ulcer caused by indomethacin. The settings on record: for Ulcer index: rat, in vivo. The protocol: The test compound was suspended in 1% HCO-60 (trade name for polyoxyethylene hydrogenated castor oil; a product of Nikko Chemical Co., Ltd., Japan) at the concentration of 10 mg/ml. Male donryu rats weighing 150-160 g were orally administered 100 mg/kg of the test compound. The occurrence of gastric ulcer was examined 24 hours after the administration.
It is well known that the single use of acidic non-steroidal anti-inflammatory drugs causes a side effect in digestive tracts such as gastric ulcer.

A further series has as its system gastric ulcer in rats. Put plainly: Anti-Ulcer Test: occurrence of gastric ulcer by test compound alone. It counts as in vivo, Male donryu rats. The following applies: 100 mg/kg singly administered at one time, oral. As for the experimental part: Ulcer inhibition of 3-(3-diethylaminopropylamino)indazole (10) and 1-(3-piperidinopropyl)-3-aminoindazole (18), typical and preferred compounds of this invention, was measured.

Where [6] appears, read: po, 3 h, 100 mg/kg, measured three hours after the injection, read-out: Inhibition (carrageenin edema), Table 17.
The mark [7] stands for this setting: 100 mg/kg, oral, 3 h after carrageenin, read-out: Inhibition (carrageenin edema), Table 1.
Where [8] appears, read: 100 mg/kg compound together with 20 mg/kg of indomethacin.

Like-named read-outs stand apart in the source and are kept apart here.

What is called LD50 is the dose at which mortality reaches 50%. As to `c1ccc2c(NCCCN3CCCCC3)n[nH]c2c1` [Compound (2), 3-(3-piperidinopropylamino)indazole], the LD50 at 72 h in series [1] is 101 mg/kg. The “Analgesic Coefficient, Table 18” value in series [2] came to 0.98. Further, the inhibition in vivo at 100 mg/kg in series [3] (setting [6]) and in series [3] (setting [7]) was 55% throughout. Besides, in series [3], the “Inhibition values compared with comparative compounds” value is reported as “higher than that of the compound C-1”. The “Inhibition (acetic acid-writhing), Table 3” value (“Inhibition … Table 3” for short) in series [4] came out at 53%.
Consider `CC1CCCCN1CCCNc1n[nH]c2ccccc12` (centres unmarked) [Compound (6), 3-{3-(2-methylpiperidino)propylamino}indazole], for which, in series [1], the LD50 at 72 h came to 91 mg/kg. Also, the “Analgesic Coefficient, Table 18” value in series [2] is on record as 1.11. Further, in series [2], the “Analgesic coefficient” value is 1.11. In series [2], the “Analgesic activity by the Randall-Selitto test” value was “potent analgesic activity”. The “Inhibition (carrageenin edema), Table 2” value turned out to be 40% in series [3] (25 mg/kg, oral); 53% in series [3] (50 mg/kg, oral); 67% in series [3] (100 mg/kg, oral). In addition, the inhibition in vivo at 100 mg/kg in series [3] (setting [6]) and in series [3] (setting [7]) was 67% in each case. Besides, the “Inhibition values compared with comparative compounds” value in series [3] was “higher than that of the compound C-1”. Moreover, the “Inhibition … Table 3” value in series [4] was found to be 49%.
With `CCN(CC)CCCNc1n[nH]c2ccccc12` [Compound (10), 3-(3-diethylaminopropylamino)indazole], the LD50 at 72 h in series [1] was 233 mg/kg. Moreover, the “Analgesic Coefficient, Table 18” value in series [2] is reported as 1.31. In addition, the inhibition in vivo at 100 mg/kg in series [3] (setting [6]) came to 66%. Further, the inhibition in vivo at 100 mg/kg in series [3] (setting [7]) worked out at 66%. Also, the “Inhibition values compared with comparative compounds” value in series [3] is given as “higher than that of the compound C-1”. In series [5] (setting [8]), the “Occurrence frequency in combination” value is on record as “not changed” and the “Ulcer index in combination” value came to 14.9 mm. In the series on gastric ulcer in rats, the Gastric ulcer occurrence result is “Gastric ulcer did not occur”.
With `CC1CCCCN1CCCn1nc(N)c2ccccc21` (centres unmarked) [Compound (22), 1-{3-(2-methylpiperidino)propyl}-3-aminoindazole], the LD50 at 72 h in series [1] came to 102 mg/kg. Also, the “Analgesic Coefficient, Table 18” value in series [2] is reported as 1.05. Moreover, the “Analgesic coefficient” value in series [2] is given as 1.05. In series [2], the “Analgesic activity by the Randall-Selitto test” value is “potent analgesic activity”. The “Inhibition (carrageenin edema), Table 2” value is recorded as 29% in series [3] (25 mg/kg, oral); 33% in series [3] (50 mg/kg, oral); 51% in series [3] (100 mg/kg, oral). The inhibition in vivo at 100 mg/kg in series [3] (setting [6]) and in series [3] (setting [7]) was 51% in each case. The “Inhibition values compared with comparative compounds” value in series [3] was “higher than those of the compounds C-2 and C-3”. In addition, in series [4], the “Inhibition … Table 3” value was 31%.
For `CN(C)CCn1nc(N)c2ccccc21` [Compound (28), 1-(2-dimethylaminoethyl)-3-aminoindazole], the LD50 at 72 h in series [1] stood at 343 mg/kg. The “Analgesic Coefficient, Table 18” value in series [2] stood at 0.96. The inhibition in vivo at 100 mg/kg in series [3] (setting [6]) and in series [3] (setting [7]) was 44% each time. In series [3], the “Inhibition values compared with comparative compounds” value was “higher than those of the compounds C-2 and C-3”.
Consider `c1ccc2c(c1)c(NCCCN1CCCCC1)nn2CCCN1CCCCC1` [Compound (39), 1-(3-piperidinopropyl)-3-(3-piperidinopropylamino)indazole], for which, in series [1], the LD50 at 72 h turned out to be 102 mg/kg. For the same compound, the inhibition in vivo at 100 mg/kg in series [3] (setting [6]) and in series [3] (setting [7]) was 28% throughout.
Turning to `c1ccc2c(c1)c(NCCCCCCN1CCCCC1)nn2CCCN1CCCCC1` [Compound (40)], the LD50 at 72 h in series [1] is 122 mg/kg. For the same compound, the inhibition in vivo at 100 mg/kg in series [3] (setting [6]) came to 21%.
Consider `CC(CCNc1nn(CCCN2CCCCC2)c2ccccc12)N1CCCCC1` (centres unmarked) [Compound (41), 1-(3-piperidinopropyl)-3-(3-piperidinobutylamino)indazole], for which the LD50 at 72 h in series [1] is 99 mg/kg. Besides, in series [3] (setting [6]), the inhibition in vivo at 100 mg/kg stood at 28%.
For `CCN(CC)CCCNc1nn(CCC(C)N2CCCCC2)c2ccccc12` (centres unmarked) [Compound (42), 1-(3-piperidinobutyl)-3-(3-diethylaminopropylamino)indazole] the same measures were 167 mg/kg and 29%.
Regarding `CC(CCn1nc(NCCCN2CCCCC2)c2ccccc21)N1CCCCC1` (centres unmarked) [Compound (43), 1-(3-piperidinobutyl)-3-(3-piperidinopropylamino)indazole], in series [1], the LD50 at 72 h was determined as 98 mg/kg. Further, the inhibition in vivo at 100 mg/kg in series [3] (setting [6]) came out at 28%.
For `CC(C)CC(CCNc1nn(CCC(C)N2CCCCC2)c2ccccc12)N1CCCCC1` (centres unmarked) [Compound (44), 1-(3-piperidinobutyl)-3-(5-methyl-3-piperidinohexylamino)indazole] the same measures were 123 mg/kg and 21%.
For `CC(CCNc1nn(CCC(C)N2CCCCC2)c2ccccc12)N(C)C` (centres unmarked) [Compound (45)] the same measures were 124 mg/kg and 21%.
Consider `CCN(CC)CCCNc1nn(CCC(C)N(C)C)c2ccccc12` (centres unmarked) [Compound (46), 1-(3-dimethylaminobutyl)-3-(3-diethylaminopropylamino)indazole], for which the LD50 at 72 h in series [1] was determined as 272 mg/kg. Also, in series [3] (setting [6]), the inhibition in vivo at 100 mg/kg came to 29%.
Take `CC(CCn1nc(NCCCN2CCCCC2)c2ccccc21)N(C)C` (centres unmarked) [Compound (47), 1-(3-dimethylaminobutyl)-3-(3-piperidinopropylamino)indazole]: the LD50 at 72 h in series [1] came out at 212 mg/kg. Also, in series [3] (setting [6]), the inhibition in vivo at 100 mg/kg came to 28%.
Take `CC(CCn1nc(NCCC(C)N2CCCCC2)c2ccccc21)N(C)C` (centres unmarked) [Compound (48), 1-(3-dimethylaminobutyl)-3-(3-piperidinobutylamino)indazole]: in series [1], the LD50 at 72 h was found to be 213 mg/kg. In addition, the inhibition in vivo at 100 mg/kg in series [3] (setting [6]) turned out to be 27%.
For `CCN(CC)C(CCNc1nn(CCC(C)N(C)C)c2ccccc12)CC(C)C` (centres unmarked) [Compound (49), 1-(3-dimethylaminobutyl)-3-(3-diethylamino-5-methylhexylamino)indazole] the same measures were 247 mg/kg and 21%.
`CN(C)CCCNc1nn(-c2ccccc2)c2ccccc12` [Compound C-6, 1-phenyl-3-(3-dimethylaminopropylamino)indazole, reference compound]: the “Inhibition … Table 3” value in series [4] is 0%.
As for `Nc1nn(-c2ccccc2)c2ccccc12` [Compound C-7, 1-phenyl-3-aminoindazole, reference compound], the “Inhibition … Table 3” value in series [4] is given as 17%.
With `COc1ccc2c(c1)c(CC(=O)O)c(C)n2C(=O)c1ccc(Cl)cc1` [indomethacin, reference compound], the Ulcer index is 10.2 mm in series [5] (10 mg/kg) and 34.3 mm in series [5] (20 mg/kg).
